In patent publication US8952054B2, “Small molecule inhibitors of MUC1 and methods of identifying the same” (Dana-Farber Cancer Institute, Inc., priority 2010, dated 2015):
pKd: −log10 of the molar value. Each block holds one compound with its values, some of them ahead of it.

Assays:
MUC1-C = biological target: T1, MUC1-C (Homo sapiens, UniProt P15941); assay: Immunoblot of MUC1-C levels in MCF-10A cells (flavones); assay type: cell-based; parameters: endogenous in cells; details: 50 to 100 μM, 3 d then additional 3 d
T1 sequence (P15941 1098-1255 limits assumed): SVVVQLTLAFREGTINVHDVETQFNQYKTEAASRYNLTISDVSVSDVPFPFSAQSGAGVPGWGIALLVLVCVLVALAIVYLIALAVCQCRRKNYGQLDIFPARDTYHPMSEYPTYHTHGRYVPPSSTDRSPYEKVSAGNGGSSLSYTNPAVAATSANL
Protocol: FIGS. 13A-D—Apigenin downregulates MUC1 and confers death of MCF-10A cells. (FIG. 13A) MCF-10A cells were treated with the indicated concentrations of apigenin and baicalein for 3 d, washed and then treated for an additional 3 d. Lysates were immunoblotted with the indicated antibodies. (FIG. 13B) MCF-10A cells were treated with the indicated concentrations apigenin (circles) and baicalein (squares) for 3 d. Viable cell number was determined by the MTS assay. The results (mean+SD of 3 determinations) are expressed as percentage of control growth in the presence of DMSO. (FIG. 13C) MCF-10A cells were treated with DMSO, 75 μM apigenin or 75 μM baicalein for 3 d. Lysates were subjected to immunoblotting with the indicated antibodies. (FIG. 13D) MCF-10A cells were treated with DMSO, 75 μM apigenin or 75 μM baicalein for 3 d, stained with propidium iodide and analyzed by flow cytometry.

His-MUC1-CD = biological target: T2, His-MUC1-CD (Homo sapiens, UniProt P15941); assay: BIAcore binding of peptides to immobilized His-MUC1-CD
T2 construct: made in house
T2 sequence (P15941 1184-1255): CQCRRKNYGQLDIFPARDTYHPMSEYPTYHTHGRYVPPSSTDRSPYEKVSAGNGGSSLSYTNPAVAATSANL
Protocol: FIGS. 1A-D. MUC1/CQC peptide blocks MUC1 oligomerization. (FIG. 1A) Schematic representation of the MUC1-C subunit and the 72-amino acid sequence of MUC1-CD (SEQ ID NO: 1) are shown. The N-terminal 15 amino acids (shaded sequence) MUC1/CQC (SEQ ID NO: 10) and mutated MUC1/AQA (SEQ ID NO: 11) peptides were synthesized with the poly-dArg transduction domain. (FIG. 1B) His-MUC1-CD (1.4 mg/ml) was immobilized on a sensor chip in a BIAcore. MUC1/CQC was injected over the chip at 10 μM. Raw binding data were analyzed by BIAevaluation software version 3.0 and fit to a 1:1 Languir binding model. (FIG. 1C) Purified His-MUC1-CD (1.5 mg/ml) was incubated with PBS, 200 μM MUC1/CQC or 200 μM MUC1/AQA for 1 h at room temperature. The proteins were separated in a non-reducing SDS-polyacrylamide gel and analyzed by immunoblotting with anti-MUC1-C. (FIG. 1D) 293 cells were transiently transfected to express an empty vector or GFP-MUC1-CD and Flag-MUC1-CD. At 48 h after transfection, the cells were treated with 5 μM MUC1/CQC or MUC1/AQA for 3 d. The cells were then harvested for immunoblotting with anti-MUC1-C (left panel). […]
The MUC1 cytoplasmic domain (MUC1-CD) contains a CQC motif that is necessary for the formation of oligomers and nuclear localization (Leng et al., 2007). […] Purified His-tagged MUC1-CD forms oligomers as detected by electrophoresis in polyacrylamide gels (FIG. 1C). […]

CYP2C9 = CYP2C9 (Homo sapiens, UniProt P11712); details: cited from earlier work
Sequence of CYP2C9 (P11712 whole entry, species assumed): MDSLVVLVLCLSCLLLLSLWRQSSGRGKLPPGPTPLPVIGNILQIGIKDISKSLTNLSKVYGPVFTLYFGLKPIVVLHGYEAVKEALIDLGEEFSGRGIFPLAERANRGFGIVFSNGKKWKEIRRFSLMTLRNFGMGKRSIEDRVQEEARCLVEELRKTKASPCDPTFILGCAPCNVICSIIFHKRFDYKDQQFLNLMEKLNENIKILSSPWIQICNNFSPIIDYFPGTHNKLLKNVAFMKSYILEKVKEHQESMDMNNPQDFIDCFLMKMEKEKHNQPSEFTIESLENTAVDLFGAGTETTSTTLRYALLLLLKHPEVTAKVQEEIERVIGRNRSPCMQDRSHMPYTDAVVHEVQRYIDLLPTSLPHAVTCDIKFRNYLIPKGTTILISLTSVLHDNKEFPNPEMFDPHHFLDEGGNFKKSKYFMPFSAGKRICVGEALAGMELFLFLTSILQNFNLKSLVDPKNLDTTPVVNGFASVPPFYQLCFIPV

BT474 cells = assay: BT474 viability (MTS) and colony formation; assay type: cell-based, human
Protocol: FIGS. 16A-D—Effects of apigenin on breast cancer cells without and with endogenous MUC1 expression. (FIG. 16A) Lysates from human MCF-7, HCC1937 and BT474 cells were immunoblotted with the indicated antibodies. (FIG. 16B) BT474 cells were treated with indicated concentrations of apigenin and baicalein for 3 d, washed and then treated for an additional 3 d. Lysates were immunoblotted with the indicated antibodies. (FIG. 16C) BT474 (triangles) and HCC1937 (squares) cells were treated with apigenin for 3 d. Viable cell numbers were determined by MTS assay. The results (mean+SD of 3 determinations) are expressed as percentage of control growth in the presence of DMSO. (FIG. 16D) BT474 cells were plated at a density of 5000 cells/6 cm dish. At 24 h after seeding, DMSO or apigenin at concentrations of 25, 50 and 75 μM was added to the medium. After 2 weeks, colonies were stained with crystal violet. The results (mean+SD of 3 determinations) are expressed as percentage of control colony formation in the presence of DMSO.

- MUC1-C levels (MUC1-C): no apparent effect
Compound: O=c1cc(-c2ccccc2)oc2cc(O)c(O)c(O)c12 [Baicalein, 5,6,7-trihydroxyflavone, reference compound]

- binding to His-MUC1-CD (His-MUC1-CD; BIAcore, data not shown): no apparent binding
Compound: MUC1/AQA: control peptide in which the CQC motif was altered to AQA (SEQ ID NO: 11) (AQARRKNYGQLDIFP) [reference compound]

- MUC1-C levels (MUC1-C): downregulation of MUC1-C levels
Compound: O=c1cc(-c2ccc(O)cc2)oc2cc(O)cc(O)c12 [Apigenin, 4′,5,7-trihydroxyflavone]
- inhibition of CYP2C9 (CYP2C9): potent inhibitor
- clonogenic survival (BT474 cells; BT474, 25, 50 and 75 μM, 2 weeks): concentration dependent decreases in clonogenic survival
- viability (MTS) (BT474 cells; BT474, 3 d): loss of viability

- pKd (His-MUC1-CD; His-tagged MUC1-CD immobilized on BIAcore sensor chip, peptide injected at 10 μM, 1:1 binding model, read-out: dissociation constant (Kd)): 7.52
Compound: CC[C@H](C)[C@H](NC(=O)[C@H](CC(=O)O)NC(=O)[C@H](CC(C)C)NC(=O)[C@H](CCC(N)=O)NC(=O)CNC(=O)[C@H](Cc1ccc(O)cc1)NC(=O)[C@H](CC(N)=O)NC(=O)[C@H](CCCCN)NC(=O)[C@H](CCCNC(=N)N)NC(=O)[C@H](CCCNC(=N)N)NC(=O)[C@H](CS)NC(=O)[C@H](CCC(N)=O)NC(=O)[C@H](CS)NC(=O)[C@@H](CCCNC(=N)N)NC(=O)[C@@H](CCCNC(=N)N)NC(=O)[C@@H](CCCNC(=N)N)NC(=O)[C@@H](CCCNC(=N)N)NC(=O)[C@@H](CCCNC(=N)N)NC(=O)[C@@H](CCCNC(=N)N)NC(=O)[C@@H](CCCNC(=N)N)NC(=O)[C@@H](CCCNC(=N)N)NC(=O)[C@H](N)CCCNC(=N)N)C(=O)N[C@@H](Cc1ccccc1)C(=O)N1CCC[C@H]1C(=O)O [MUC1/CQC]
